According to the NIST ThermoML archive (doi:10.1021/acs.jced.5b00537):
Numbers after ± are expanded uncertainties.

Assay: xn = mol fraction of the nth substance listed
Details: 100 kPa, Liquid; for viscosity: Cone and plate viscometry; for mass density: Vibrating tube method

CCC(C)(C)O [2-methylbutan-2-ol] + CC(C)CO
Details	mass density [kg/m3]	viscosity [mPa·s]
293.15 K, x1 = 0.101	803.58 ± 0.61	4.697 ± 0.2
293.15 K, x1 = 0.2	805.09 ± 0.61	5.166 ± 0.2
293.15 K, x1 = 0.301	806.61 ± 0.61	5.487 ± 0.2
293.15 K, x1 = 0.4	807.99 ± 0.61	5.819 ± 0.2
293.15 K, x1 = 0.5	809.31 ± 0.61	6.094 ± 0.2
293.15 K, x1 = 0.599	810.29 ± 0.61	6.075 ± 0.2
293.15 K, x1 = 0.7	810.83 ± 0.61	5.951 ± 0.2
293.15 K, x1 = 0.8	810.82 ± 0.61	5.518 ± 0.2
293.15 K, x1 = 0.9	810.12 ± 0.61	5.081 ± 0.2
293.15 K, x1 = 1	808.77 ± 0.61	4.596 ± 0.2
303.15 K, x1 = 0.101	795.96 ± 0.61	3.244 ± 0.2
303.15 K, x1 = 0.2	797.22 ± 0.61	3.387 ± 0.2
303.15 K, x1 = 0.301	798.63 ± 0.61	3.616 ± 0.2
303.15 K, x1 = 0.4	799.87 ± 0.61	3.726 ± 0.2
303.15 K, x1 = 0.5	800.87 ± 0.61	3.775 ± 0.2
303.15 K, x1 = 0.599	801.55 ± 0.61	3.715 ± 0.2
303.15 K, x1 = 0.7	801.84 ± 0.62	3.597 ± 0.2
303.15 K, x1 = 0.8	801.61 ± 0.62	3.386 ± 0.2
303.15 K, x1 = 0.9	800.89 ± 0.62	3.187 ± 0.2
303.15 K, x1 = 1	799.74 ± 0.62	2.983 ± 0.2
313.15 K, x1 = 0.101	788 ± 0.61	2.392 ± 0.2
313.15 K, x1 = 0.2	789.04 ± 0.61	2.445 ± 0.2
313.15 K, x1 = 0.301	790.24 ± 0.61	2.526 ± 0.2
313.15 K, x1 = 0.4	791.21 ± 0.62	2.552 ± 0.2
313.15 K, x1 = 0.5	791.89 ± 0.62	2.539 ± 0.2
313.15 K, x1 = 0.599	792.32 ± 0.62	2.46 ± 0.2
313.15 K, x1 = 0.7	792.36 ± 0.62	2.365 ± 0.2
313.15 K, x1 = 0.8	792.06 ± 0.62	2.287 ± 0.2
313.15 K, x1 = 0.9	791.35 ± 0.62	2.204 ± 0.2
313.15 K, x1 = 1	790.35 ± 0.62	2.078 ± 0.2
323.15 K, x1 = 0.101	779.8 ± 0.62	1.749 ± 0.2
323.15 K, x1 = 0.2	780.62 ± 0.62	1.776 ± 0.2
323.15 K, x1 = 0.301	781.62 ± 0.62	1.8 ± 0.2
323.15 K, x1 = 0.4	782.29 ± 0.62	1.792 ± 0.2
323.15 K, x1 = 0.5	782.77 ± 0.62	1.756 ± 0.2
323.15 K, x1 = 0.599	782.89 ± 0.62	1.721 ± 0.2
323.15 K, x1 = 0.7	782.77 ± 0.62	1.664 ± 0.2
323.15 K, x1 = 0.8	782.3 ± 0.62	1.606 ± 0.2
323.15 K, x1 = 0.9	781.58 ± 0.62	1.549 ± 0.2
323.15 K, x1 = 1	780.66 ± 0.62	1.494 ± 0.2
333.15 K, x1 = 0.101	771.08 ± 0.62	1.31 ± 0.2
333.15 K, x1 = 0.2	771.75 ± 0.62	1.315 ± 0.2
333.15 K, x1 = 0.301	772.36 ± 0.62	1.329 ± 0.2
333.15 K, x1 = 0.4	772.81 ± 0.62	1.316 ± 0.2
333.15 K, x1 = 0.5	772.96 ± 0.62	1.277 ± 0.2
333.15 K, x1 = 0.599	772.93 ± 0.62	1.243 ± 0.2
333.15 K, x1 = 0.7	772.58 ± 0.62	1.206 ± 0.2
333.15 K, x1 = 0.8	772.09 ± 0.62	1.164 ± 0.2
333.15 K, x1 = 0.9	771.38 ± 0.62	1.128 ± 0.2
333.15 K, x1 = 1	770.4 ± 0.62	1.093 ± 0.2
343.15 K, x1 = 0.101	762.05 ± 0.62	–
343.15 K, x1 = 0.2	762.45 ± 0.62	–
343.15 K, x1 = 0.301	762.79 ± 0.62	–
343.15 K, x1 = 0.4	762.98 ± 0.62	–
343.15 K, x1 = 0.5	762.91 ± 0.62	–
343.15 K, x1 = 0.599	762.66 ± 0.62	–
343.15 K, x1 = 0.7	762.18 ± 0.62	–
343.15 K, x1 = 0.8	761.63 ± 0.62	–
343.15 K, x1 = 0.9	760.84 ± 0.62	–
343.15 K, x1 = 1	759.8 ± 0.62	–
353.15 K, x1 = 1	749.13 ± 1	–
363.15 K, x1 = 1	738.77 ± 1	–
